In PMC12392461, “Beyond Estrogenicity: A Comparative Assessment of Bisphenol A and Its Alternatives in In Vitro Assays Questions Safety of Replacements” (Environmental Science & Technology, 2025):
Like-named read-outs stand apart in the source and are kept apart here.

Columns and labels:
[1] = tested on: Antioxidant response element; test: MitoOxTox: oxidative stress response in AREc32
Text: All bioassay media components and the ERα-UAS-bla GripTite and PPARγ-UAS-bla cells were obtained from Thermo Fisher Scientific (Waltham, MA, USA). AREc32 reporter gene cells based on MCF7 were provided by C. Roland Wolf (Cancer Research UK); AhR CALUX cells (H4L7.5c2 derived from H4IIe) were provided by Michael Denison (UC Davis, USA); and SH-SY5Y cells were purchased from Sigma-Aldrich.
(§1) Cell culture conditions and bioassay protocols including response detection are provided in Text S2.1–2.4 and Table S3. − Cell viability was determined from cell confluency using an IncuCyte S3 Live-Cell Analysis System (Sartorius AG, Essen, Germany) before and after exposure, except for SH-SY5Y cells (live–dead staining with Nuclear Green LcS1 and propidium iodide, Abcam, UK). For metabolic activation experiments, cell viability was assessed using the ToxBLAzer DualScreen Kit (Thermo Fisher Scientific) to capture the remaining toxicity in ERα-UAS-bla GripTite after treatment with the aCYP catalyst (details in Text S2.4).
For ARE, the concentration that triggered an induction ratio of 1.5 (ECIR1.5) was used as the benchmark value, as detailed in Text S2.5. IC10 values also served as a threshold for data analysis in all assays; only concentrations below IC10 were considered when deriving EC10 or ECIR1.5. […]
S2: Cell culture and bioassays
S2.1: Cell Culturing Conditions
All suppliers and sources are given in detail in SI-Excel S3. The bioassay media for the different assays were prepared as follows: Assay medium for ER alpha-UAS-bla GripTite (ERα) and PPAR gamma-UAS-bla 293H (PPARγ) was prepared with 98% Opti-MEM, supplemented with 2% charcoal-stripped FBS, and 100 U/mL penicillin-streptomycin. MitoOxTox and AhR assay medium was comprised of 90% DMEM with GlutaMAX, supplemented with 10% FBS, and 100 U/mL penicillin-streptomycin. Neurotoxicity assay medium consisted of the neurobasal […]
(1 picture or pasted object on this page, not shown here) […]
medium, supplemented with 2% B-27 Supplement and 2 mM GlutaMAX Supplement. SH - SY5Y cells were differentiated with 10 µM all-trans retinoic acid prior to the assay.
S2.2: Cell Seeding and Incubation. For all bioassays, cell suspensions in the respective assay medium were dispensed into each well of 384-well plates using a MultiFlo Dispenser (Biotek, (now Agilent), Winooski, VT, U.S.). After seeding, the plates were incubated at 37° C and 5% CO₂ for […]. The final cell densities and plate types were as follows: Black poly-D-lysine coated 384-well plates (Product No. 354663, Corning Inc., NYC, U.S.) were used for PPARγ:
6500 cells/well, ERα: 5000 cells/well. White 384-well plates with a clear bottom (Product No.
781098, Greiner, Kremsmünster, Austria) were utilized for the MitoOxTox assay: 2650

Estrogen Receptor ERα = molecular target: T1, Estrogen Receptor ERα (Homo sapiens, UniProt P03372); test: aCYP oxidation followed by ERα-UAS-bla GripTite assay (TK-Ratio of effect); assay type: cell-based; conditions: for EC10, after oxidation / EC10, before oxidation: ERα, in M; for EC10, after oxidation: after abiotic CYP catalyst; for TKERα: TKERα-Ratio
T1 sequence (P03372 311-547 limits assumed): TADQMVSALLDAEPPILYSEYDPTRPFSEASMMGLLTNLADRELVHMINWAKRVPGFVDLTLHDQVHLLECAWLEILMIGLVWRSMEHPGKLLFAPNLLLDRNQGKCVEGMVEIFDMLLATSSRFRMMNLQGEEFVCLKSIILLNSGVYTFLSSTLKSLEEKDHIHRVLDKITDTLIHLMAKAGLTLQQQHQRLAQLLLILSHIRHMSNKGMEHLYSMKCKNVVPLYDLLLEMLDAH
Procedure: as §1, with “S2.4). […]” for “S2.4).”
The TK-Ratio method was used to evaluate the impact of abiotic CYP oxidation on the potency of tested compounds. […]
For experiments with the preceding aCYP activation, ERα cell viability was additionally calculated from the readout of the ToxBLAzer reagent. The ToxBLAzer assay was conducted following the manufacturer's instructions (Thermo Fisher, Waltham, MA, U.S.).13 Fluorescence intensity was recorded at the start of the assay ( Fwavelength(0h)) and after a 2-hour incubation at […]
Cell viability was assessed based on the red fluorescence signal at 665 nm, applying eq. S11 for normalization.
Cell viability = F665nm(2h, sample)-F665nm(0h, average cell-free) (S11) F665nm(2h, average unexposed)-F665nm(0h, average cell-free) […]
the specific endpoint to avoid artifacts from cytotoxicity burst. 15
S2.5: Concentration-response curves (CRCs)
To avoid bias from cytotoxicity burst at higher concentrations, all concentrations exceeding the IC10 for cytotoxicity were excluded in the CRC modeling of effects but otherwise cytotoxicity and effects were fitted with the same model equations (response stands for cytotoxicity or effect). For ERα, AhR, ARE and PPARγ preferably a linear model was fitted to the linear portion of CRC up to maximum 30% effect (eq. S12),16 but in some cases it was necessary to choose a sigmoidal log-concentration-response model, specifically a log-logistic model (eq. S13), to derive effect concentrations and cytotoxicity. For mitochondrial toxicity and neurotoxicity, the […]
are not reporter gene assays. Common practice when using log-logistic models, e.g., the model implemented in tcpl package in R,17, 18 is that the minima and maxima are also fitted and only median effect concentrations AC50 are derived. […]
concentrations (EC10) for both linear and log-sigmoidal CRCs to allow absolute comparisons at the same effect level and for TR and SR -analysis. This was done using the AutomatedBioassayScreening19 published by Braun et al.,20 which also included an algorithm to choose the best model between eq. S12 and eq. S13.
Response (%) = slope × C (S12) […]
logEC =logEC − 1 ∙log (max−min − 100%) (S14)

[2] = Abiotic CYP (aCYP) oxidation, remaining parent compound (Cparent-Ratio)

Oc1ccc(Sc2ccc(O)cc2)cc1 [BPT, 4,4'-Thiodiphenol]
EC10 ([1]; Arec32, read-out: EC10, linear): 85.6 µM | EC10 ([1]; Arec32, read-out: EC10, linear transformed): 1500 µM | logEC10 ([1]; Bioassay ARE, dosing range all, log-logistic model fit): masked by cytotoxicity | EC10, after oxidation (Estrogen Receptor ERα; Table S10): 1.15E-06 | EC10, before oxidation (Estrogen Receptor ERα; Table S10): 2.87E-07 | TKERα (Estrogen Receptor ERα; Table S10): 0.2502 | EC10, after oxidation (Estrogen Receptor ERα; Table S11): 2.70E-06 | EC10, before oxidation (Estrogen Receptor ERα; Table S11): 2.28E-06 | TKERα (Estrogen Receptor ERα; Table S11): 0.85 | % Loss ([2]; Table S9, loss of parent after aCYP oxidation): 71% | % Loss ([2]; Table S11): 87%
